From ChEMBL document CHEMBL1201862, “PubChem BioAssay data set” (2004)
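Following 48 hours of exposure in 96-well plates, responses at five concentrations were used to interpolate endpoints linearly. Here, GI50 denotes the concentration required for 50% inhibition of growth.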 Calls of active or inactive are those of the source. Rule as the data show it: active = GI50 up to about 1.1 µM and inactive = higher.

Columns and labels:
Assay in all cases: growth of human tumour cells (NCI), 48 h
[1] = test system: 786-0
[2] = test system: CAKI-1
[3] = test system: HCT-15
[4] = test system: HT-29
[5] = test system: Hs-578T
[6] = test system: LOX IMVI
[7] = test system: M14
[8] = test system: MDA-MB-231
[9] = test system: PC-3
[10] = test system: SF-268
[11] = test system: SK-OV-3
[12] = test system: SN12C
[13] = test system: SNB-19
[14] = test system: SNB-75
[15] = test system: SR
[16] = test system: SW-620
[17] = test system: TK-10
[18] = test system: UACC-62
[19] = test system: ACHN
[20] = test system: NCI-H460

SMILES	GI50 [1]	GI50 [2]	GI50 [3]	GI50 [4]	GI50 [5]	GI50 [6]	GI50 [7]	GI50 [8]	GI50 [9]	GI50 [10]	GI50 [11]	GI50 [12]	GI50 [13]	GI50 [14]	GI50 [15]	GI50 [16]	GI50 [17]	GI50 [18]	GI50 [19]	GI50 [20]
CC(C)n1c2c(c3ccccc3c1=O)C(=O)c1ccccc1-2	> 100 µM (inactive)	> 100 µM (inactive)	> 100 µM	> 100 µM (inactive)	> 100 µM (inactive)	> 100 µM (inactive)	> 100 µM (inactive)	> 100 µM (inactive)	> 100 µM (inactive)	> 100 µM (inactive)	> 100 µM (inactive)	> 100 µM (inactive)	> 100 µM (inactive)	> 100 µM (inactive)	> 100 µM (inactive)	> 100 µM (inactive)	> 100 µM (inactive)	> 100 µM (inactive)	–	–
Cc1nnc(N)nc1/C=C\c1cccs1	18.6 µM (inactive)	34.2 µM (inactive)	10.2 µM	14.1 µM (inactive)	19.9 µM (inactive)	29.6 µM (inactive)	16.2 µM (inactive)	87.3 µM (inactive)	17.2 µM (inactive)	19.5 µM (inactive)	36.5 µM (inactive)	> 10 µM (inactive)	33.6 µM (inactive)	–	16.6 µM (inactive)	25.5 µM (inactive)	32.4 µM (inactive)	14.9 µM (inactive)	15 µM (inactive)	14.7 µM (inactive)
N#CC1(C#N)C2CCCCC23OC(=N)C1(C#N)C(c1ccco1)O3 (centres undefined)	14.5 µM (inactive)	11.6 µM (inactive)	9.23 µM	26.7 µM (inactive)	30.8 µM (inactive)	17.2 µM (inactive)	20.4 µM (inactive)	16.7 µM (inactive)	23 µM (inactive)	30.8 µM (inactive)	> 100 µM (inactive)	14.8 µM (inactive)	31.6 µM (inactive)	55.5 µM (inactive)	–	7.76 µM (inactive)	17.1 µM (inactive)	16.6 µM (inactive)	28.5 µM (inactive)	25.8 µM (inactive)
CCN(CC)CCOc1ccc(N2C(=O)c3cc(OC)c(OC)cc3C2=O)cc1	> 100 µM (inactive)	> 100 µM (inactive)	> 100 µM	> 100 µM (inactive)	> 100 µM (inactive)	> 100 µM (inactive)	> 100 µM (inactive)	> 100 µM (inactive)	> 100 µM (inactive)	> 100 µM (inactive)	> 100 µM (inactive)	> 100 µM (inactive)	> 100 µM (inactive)	–	> 100 µM (inactive)	> 100 µM (inactive)	> 100 µM (inactive)	> 100 µM (inactive)	> 100 µM (inactive)	> 100 µM (inactive)
CC1(C)NC2C(=O)c3c([nH]c4ccccc34)[C@]3(C)CCC1CC23 (some centres undefined)	> 100 µM (inactive)	> 100 µM (inactive)	83 µM	94.8 µM (inactive)	> 100 µM (inactive)	> 100 µM (inactive)	–	> 100 µM (inactive)	> 100 µM (inactive)	> 100 µM (inactive)	–	> 100 µM (inactive)	–	> 100 µM (inactive)	55.2 µM (inactive)	> 100 µM (inactive)	> 100 µM (inactive)	> 100 µM (inactive)	> 100 µM (inactive)	> 100 µM (inactive)
Cc1c(C)c(C)c(Cn2[nH]c(=O)n(C)c2=O)c(C)c1C	> 100 µM (inactive)	> 100 µM (inactive)	> 100 µM	> 100 µM (inactive)	> 100 µM (inactive)	> 100 µM (inactive)	> 100 µM (inactive)	> 100 µM (inactive)	> 100 µM (inactive)	> 100 µM (inactive)	> 100 µM (inactive)	> 100 µM (inactive)	> 100 µM (inactive)	> 100 µM (inactive)	–	> 100 µM (inactive)	> 100 µM (inactive)	> 100 µM (inactive)	> 100 µM (inactive)	> 100 µM (inactive)
COc1ccccc1/C=C/C1=NN(c2cccc(S(=O)(=O)O)c2)C2(C1)SCC(=O)N2c1nc2ccccc2s1 (centres undefined)	> 100 µM (inactive)	> 100 µM (inactive)	67.9 µM	97.9 µM (inactive)	> 100 µM (inactive)	53.5 µM (inactive)	> 100 µM (inactive)	> 100 µM (inactive)	70.1 µM (inactive)	> 100 µM (inactive)	–	> 100 µM (inactive)	> 100 µM (inactive)	> 100 µM (inactive)	24.5 µM (inactive)	> 100 µM (inactive)	84.3 µM (inactive)	53.8 µM (inactive)	55.7 µM (inactive)	61.9 µM (inactive)
C=CCN1C(=O)C=C(c2ccccc2)n2ncc3cccc1c32	> 100 µM (inactive)	> 100 µM (inactive)	> 100 µM	69.2 µM (inactive)	> 100 µM (inactive)	> 100 µM (inactive)	> 100 µM (inactive)	> 100 µM (inactive)	> 100 µM (inactive)	> 100 µM (inactive)	> 100 µM (inactive)	> 100 µM (inactive)	> 100 µM (inactive)	–	> 100 µM (inactive)	> 100 µM (inactive)	> 100 µM (inactive)	> 100 µM (inactive)	> 100 µM (inactive)	–
O=C(C[N+]1(c2ccccc2)CCOCC1)c1ccccc1	60.5 µM (inactive)	> 100 µM (inactive)	> 100 µM	> 100 µM (inactive)	> 100 µM (inactive)	> 100 µM (inactive)	> 100 µM (inactive)	> 100 µM (inactive)	> 100 µM (inactive)	> 100 µM (inactive)	–	> 100 µM (inactive)	> 100 µM (inactive)	> 100 µM (inactive)	34.8 µM (inactive)	–	> 100 µM (inactive)	> 100 µM (inactive)	> 100 µM (inactive)	> 100 µM (inactive)
C1CSCCSCCSCCSCCS1	> 100 µM (inactive)	> 100 µM (inactive)	> 100 µM	> 100 µM (inactive)	> 100 µM (inactive)	> 100 µM (inactive)	> 100 µM (inactive)	> 100 µM (inactive)	> 100 µM (inactive)	> 100 µM (inactive)	> 100 µM (inactive)	> 100 µM (inactive)	> 100 µM (inactive)	> 100 µM (inactive)	–	> 100 µM (inactive)	> 100 µM (inactive)	> 100 µM (inactive)	> 100 µM (inactive)	> 100 µM (inactive)
Brc1ccc(-c2[nH]c3ccccc3c2/C=N\Nc2ccc(-c3nc4ccccc4[nH]3)cc2)cc1	< 0.01 µM (active)	< 0.01 µM (active)	< 0.01 µM	< 0.01 µM (active)	< 0.01 µM (active)	< 0.01 µM (active)	< 0.01 µM (active)	< 0.01 µM (active)	< 0.01 µM (active)	< 0.01 µM (active)	< 0.01 µM (active)	< 0.01 µM (active)	< 0.01 µM (active)	–	< 0.01 µM (active)	< 0.01 µM (active)	–	< 0.01 µM (active)	< 0.01 µM (active)	< 0.01 µM (active)
COc1nc(-c2c[nH]c3ccccc23)cnc1N	15.6 µM (inactive)	24.6 µM (inactive)	22.8 µM	19.3 µM (inactive)	17.7 µM (inactive)	25.3 µM (inactive)	30.1 µM (inactive)	18.1 µM (inactive)	26.5 µM (inactive)	23.6 µM (inactive)	30.9 µM (inactive)	5.87 µM (inactive)	66.4 µM (inactive)	–	15 µM (inactive)	32.6 µM (inactive)	> 100 µM (inactive)	16.4 µM (inactive)	14.2 µM (inactive)	26.4 µM (inactive)
CCSc1cc(=O)n(C)c(=O)n1C	> 100 µM (inactive)	> 100 µM (inactive)	> 100 µM	> 100 µM (inactive)	> 100 µM (inactive)	> 100 µM (inactive)	> 100 µM (inactive)	> 100 µM (inactive)	> 100 µM (inactive)	> 100 µM (inactive)	> 100 µM (inactive)	> 100 µM (inactive)	> 100 µM (inactive)	42.7 µM (inactive)	–	> 100 µM (inactive)	> 100 µM (inactive)	> 100 µM (inactive)	> 100 µM (inactive)	> 100 µM (inactive)
CO/C(N)=C(C#N)/N=C/c1cccs1	> 100 µM (inactive)	24.3 µM (inactive)	45.7 µM	25.9 µM (inactive)	66.2 µM (inactive)	42.6 µM (inactive)	41.2 µM (inactive)	> 100 µM (inactive)	> 100 µM (inactive)	> 100 µM (inactive)	> 100 µM (inactive)	> 100 µM (inactive)	> 100 µM (inactive)	73.5 µM (inactive)	–	68.1 µM (inactive)	> 100 µM (inactive)	35.5 µM (inactive)	> 100 µM (inactive)	> 100 µM (inactive)
Nc1ncnc2c1ccn2C/C=C\CO	> 100 µM (inactive)	> 100 µM (inactive)	> 100 µM	> 100 µM (inactive)	> 100 µM (inactive)	> 100 µM (inactive)	> 100 µM (inactive)	> 100 µM (inactive)	> 100 µM (inactive)	> 100 µM (inactive)	> 100 µM (inactive)	> 100 µM (inactive)	> 100 µM (inactive)	> 100 µM (inactive)	–	> 100 µM (inactive)	> 100 µM (inactive)	> 100 µM (inactive)	> 100 µM (inactive)	> 100 µM (inactive)
